Species: Rattus norvegicus
Assay: DrugMatrix - Regimen: Daily Repeat
Type: toxicity, organism-based, Sprague-Dawley
Set-up: regimen Daily Repeat, gender Male, age 6-8 weeks
Conditions: in vivo, po, route oral GAVAGE, vehicle .5 % CMC; for BASOPHIL / EOSINOPHIL / ERYTHROCYTE COUNT / HEMATOCRIT / HEMOGLOBIN / LEUKOCYTE COUNT / LYMPHOCYTE / MEAN CORPUSCULAR HEMOGLOBIN / MEAN CORPUSCULAR HEMOGLOBIN CONCENTRATION / MEAN CORPUSCULAR VOLUME / MONOCYTE / NEUTROPHIL / PLATELET COUNT: tissue Blood; for ALANINE AMINOTRANSFERASE / ALBUMIN / ALKALINE PHOSPHATASE / ASPARTATE AMINOTRANSFERASE / BLOOD UREA NITROGEN / CARBON DIOXIDE / CHLORIDE / CHOLESTEROL / CREATINE PHOSPHOKINASE / CREATININE / GLUCOSE / LACTATE DEHYDROGENASE / LIPASE / PHOSPHORUS / POTASSIUM / SODIUM / TOTAL BILIRUBIN / TOTAL PROTEIN / URIC ACID: tissue Plasma
[1] = 0 mg/kg, 72 h, dose level Control, time 3 day
[2] = 0 mg/kg, 120 h, dose level Control, time 5 day
[3] = 47 mg/kg, 72 h, dose level Low, time 3 day
[4] = 47 mg/kg, 120 h, dose level Low, time 5 day
[5] = 1200 mg/kg, 72 h, dose level High, time 3 day
[6] = 1200 mg/kg, 120 h, dose level High, time 5 day

Nc1ccn([C@H]2CC[C@@H](CO)O2)c(=O)n1 [ZALCITABINE]
BASOPHIL [1]: 0.17% | EOSINOPHIL [1]: 0.83% | ERYTHROCYTE COUNT [1]: 7.2 x10E6/uL | HEMATOCRIT [1]: 43.13% | HEMOGLOBIN [1]: 14.63 G/DL | LEUKOCYTE COUNT [1]: 9.05 x10E3/uL | LYMPHOCYTE [1]: 75.17% | MEAN CORPUSCULAR HEMOGLOBIN [1]: 20.35 pg | MEAN CORPUSCULAR HEMOGLOBIN CONCENTRATION [1]: 33.95 G/DL | MEAN CORPUSCULAR VOLUME [1]: 59.93 fL | MONOCYTE [1]: 2.83% | NEUTROPHIL [1]: 21.17% | PLATELET COUNT [1]: 1093.17 x10E3/uL | ALANINE AMINOTRANSFERASE [1]: 49.17 u/L | ALBUMIN [1]: 4.33 G/DL | ALKALINE PHOSPHATASE [1]: 366.5 u/L | ASPARTATE AMINOTRANSFERASE [1]: 86.33 u/L | BLOOD UREA NITROGEN [1]: 17 mg/dL | CARBON DIOXIDE [1]: 24.17 mmol/L | CHLORIDE [1]: 102.83 MEQ/L | CHOLESTEROL [1]: 78.33 mg/dL | CREATINE PHOSPHOKINASE [1]: 320.83 u/L | CREATININE [1]: 0.3 mg/dL | GLUCOSE [1]: 140.83 mg/dL | LACTATE DEHYDROGENASE [1]: 210 u/L | LIPASE [1]: 9.33 u/L | PHOSPHORUS [1]: 9.12 mg/dL | POTASSIUM [1]: 5.65 MEQ/L | SODIUM [1]: 144.17 MEQ/L | TOTAL BILIRUBIN [1]: 0.1 mg/dL | TOTAL PROTEIN [1]: 6.3 G/DL | URIC ACID [1]: 1.03 mg/dL | BASOPHIL [2]: 0.17% | EOSINOPHIL [2]: 1% | ERYTHROCYTE COUNT [2]: 7.02 x10E6/uL | HEMATOCRIT [2]: 43.12% | HEMOGLOBIN [2]: 14.18 G/DL | LEUKOCYTE COUNT [2]: 9.63 x10E3/uL | LYMPHOCYTE [2]: 72% | MEAN CORPUSCULAR HEMOGLOBIN [2]: 20.25 pg | MEAN CORPUSCULAR HEMOGLOBIN CONCENTRATION [2]: 32.95 G/DL | MEAN CORPUSCULAR VOLUME [2]: 61.43 fL | MONOCYTE [2]: 2.67% | NEUTROPHIL [2]: 24.5% | PLATELET COUNT [2]: 1028.5 x10E3/uL | ALANINE AMINOTRANSFERASE [2]: 42.5 u/L | ALBUMIN [2]: 4.2 G/DL | ALKALINE PHOSPHATASE [2]: 300.33 u/L | ASPARTATE AMINOTRANSFERASE [2]: 87.67 u/L | BLOOD UREA NITROGEN [2]: 17 mg/dL | CARBON DIOXIDE [2]: 24.33 mmol/L | CHLORIDE [2]: 99 MEQ/L | CHOLESTEROL [2]: 70.67 mg/dL | CREATINE PHOSPHOKINASE [2]: 891.33 u/L | CREATININE [2]: 0.3 mg/dL | GLUCOSE [2]: 139.67 mg/dL | LACTATE DEHYDROGENASE [2]: 289.83 u/L | LIPASE [2]: 8.83 u/L | PHOSPHORUS [2]: 9.5 mg/dL | POTASSIUM [2]: 5.55 MEQ/L | SODIUM [2]: 139 MEQ/L | TOTAL BILIRUBIN [2]: 0.0833 mg/dL | TOTAL PROTEIN [2]: 6.1 G/DL | URIC ACID [2]: 0.98 mg/dL | BASOPHIL [3]: 0.33% | EOSINOPHIL [3]: 1.67% | ERYTHROCYTE COUNT [3]: 7.03 x10E6/uL | HEMATOCRIT [3]: 42.67% | HEMOGLOBIN [3]: 14.33 G/DL | LEUKOCYTE COUNT [3]: 10.43 x10E3/uL | LYMPHOCYTE [3]: 70.67% | MEAN CORPUSCULAR HEMOGLOBIN [3]: 20.4 pg | MEAN CORPUSCULAR HEMOGLOBIN CONCENTRATION [3]: 33.57 G/DL | MEAN CORPUSCULAR VOLUME [3]: 60.7 fL | MONOCYTE [3]: 2.33% | NEUTROPHIL [3]: 25% | PLATELET COUNT [3]: 1049.33 x10E3/uL | ALANINE AMINOTRANSFERASE [3]: 49.33 u/L | ALBUMIN [3]: 4.27 G/DL | ALKALINE PHOSPHATASE [3]: 380.5 u/L | ASPARTATE AMINOTRANSFERASE [3]: 78.67 u/L | BLOOD UREA NITROGEN [3]: 18.33 mg/dL | CARBON DIOXIDE [3]: 22.33 mmol/L | CHLORIDE [3]: 101 MEQ/L | CHOLESTEROL [3]: 74.67 mg/dL | CREATINE PHOSPHOKINASE [3]: 442.33 u/L | CREATININE [3]: 0.27 mg/dL | GLUCOSE [3]: 147 mg/dL | LACTATE DEHYDROGENASE [3]: 216.67 u/L | LIPASE [3]: 9 u/L | PHOSPHORUS [3]: 9.3 mg/dL | POTASSIUM [3]: 5.95 MEQ/L | SODIUM [3]: 143.67 MEQ/L | TOTAL BILIRUBIN [3]: 0.1 mg/dL | TOTAL PROTEIN [3]: 6.27 G/DL | URIC ACID [3]: 0.87 mg/dL | BASOPHIL [4]: 0.33% | EOSINOPHIL [4]: 1% | ERYTHROCYTE COUNT [4]: 7.41 x10E6/uL | HEMATOCRIT [4]: 44.03% | HEMOGLOBIN [4]: 14.73 G/DL | LEUKOCYTE COUNT [4]: 11.23 x10E3/uL | LYMPHOCYTE [4]: 81.67% | MEAN CORPUSCULAR HEMOGLOBIN [4]: 19.83 pg | MEAN CORPUSCULAR HEMOGLOBIN CONCENTRATION [4]: 33.4 G/DL | MEAN CORPUSCULAR VOLUME [4]: 59.43 fL | MONOCYTE [4]: 2.33% | NEUTROPHIL [4]: 15.67% | PLATELET COUNT [4]: 1184 x10E3/uL | ALANINE AMINOTRANSFERASE [4]: 46 u/L | ALBUMIN [4]: 4.43 G/DL | ALKALINE PHOSPHATASE [4]: 323 u/L | ASPARTATE AMINOTRANSFERASE [4]: 95.67 u/L | BLOOD UREA NITROGEN [4]: 15.67 mg/dL | CARBON DIOXIDE [4]: 22.33 mmol/L | CHLORIDE [4]: 98.33 MEQ/L | CHOLESTEROL [4]: 68 mg/dL | CREATINE PHOSPHOKINASE [4]: 672 u/L | CREATININE [4]: 0.3 mg/dL | GLUCOSE [4]: 129 mg/dL | LACTATE DEHYDROGENASE [4]: 673.67 u/L | LIPASE [4]: 8.67 u/L | PHOSPHORUS [4]: 9.57 mg/dL | POTASSIUM [4]: 5.77 MEQ/L | SODIUM [4]: 140.67 MEQ/L | TOTAL BILIRUBIN [4]: 0.1 mg/dL | TOTAL PROTEIN [4]: 6.4 G/DL | URIC ACID [4]: 1.23 mg/dL | BASOPHIL [5]: 0.33% | EOSINOPHIL [5]: 1% | ERYTHROCYTE COUNT [5]: 7.16 x10E6/uL | HEMATOCRIT [5]: 42.4% | HEMOGLOBIN [5]: 14.27 G/DL | LEUKOCYTE COUNT [5]: 9.77 x10E3/uL | LYMPHOCYTE [5]: 80.33% | MEAN CORPUSCULAR HEMOGLOBIN [5]: 20 pg | MEAN CORPUSCULAR HEMOGLOBIN CONCENTRATION [5]: 33.73 G/DL | MEAN CORPUSCULAR VOLUME [5]: 59.27 fL | MONOCYTE [5]: 2.33% | NEUTROPHIL [5]: 16.33% | PLATELET COUNT [5]: 1274 x10E3/uL | ALANINE AMINOTRANSFERASE [5]: 63.67 u/L | ALBUMIN [5]: 4.3 G/DL | ALKALINE PHOSPHATASE [5]: 291.67 u/L | ASPARTATE AMINOTRANSFERASE [5]: 78 u/L | BLOOD UREA NITROGEN [5]: 15.33 mg/dL | CARBON DIOXIDE [5]: 22.67 mmol/L | CHLORIDE [5]: 103.67 MEQ/L | CHOLESTEROL [5]: 79 mg/dL | CREATINE PHOSPHOKINASE [5]: 509 u/L | CREATININE [5]: 0.3 mg/dL | GLUCOSE [5]: 141.33 mg/dL | LACTATE DEHYDROGENASE [5]: 255.33 u/L | LIPASE [5]: 9.33 u/L | PHOSPHORUS [5]: 10.23 mg/dL | POTASSIUM [5]: 5.83 MEQ/L | SODIUM [5]: 146.33 MEQ/L | TOTAL BILIRUBIN [5]: 0.1 mg/dL | TOTAL PROTEIN [5]: 6.17 G/DL | URIC ACID [5]: 1.33 mg/dL | BASOPHIL [6]: 0% | EOSINOPHIL [6]: 0.67% | ERYTHROCYTE COUNT [6]: 7.45 x10E6/uL | HEMATOCRIT [6]: 45% | HEMOGLOBIN [6]: 15 G/DL | LEUKOCYTE COUNT [6]: 9.43 x10E3/uL | LYMPHOCYTE [6]: 80% | MEAN CORPUSCULAR HEMOGLOBIN [6]: 20.1 pg | MEAN CORPUSCULAR HEMOGLOBIN CONCENTRATION [6]: 33.37 G/DL | MEAN CORPUSCULAR VOLUME [6]: 60.37 fL | MONOCYTE [6]: 2.33% | NEUTROPHIL [6]: 16.33% | PLATELET COUNT [6]: 957.67 x10E3/uL | ALANINE AMINOTRANSFERASE [6]: 49.33 u/L | ALBUMIN [6]: 4.1 G/DL | ALKALINE PHOSPHATASE [6]: 291.67 u/L | ASPARTATE AMINOTRANSFERASE [6]: 101.33 u/L | BLOOD UREA NITROGEN [6]: 15.33 mg/dL | CARBON DIOXIDE [6]: 22.67 mmol/L | CHLORIDE [6]: 99.67 MEQ/L | CHOLESTEROL [6]: 63.33 mg/dL | CREATINE PHOSPHOKINASE [6]: 865 u/L | CREATININE [6]: 0.3 mg/dL | GLUCOSE [6]: 138 mg/dL | LACTATE DEHYDROGENASE [6]: 744.67 u/L | LIPASE [6]: 8.33 u/L | PHOSPHORUS [6]: 9.43 mg/dL | POTASSIUM [6]: 5.67 MEQ/L | SODIUM [6]: 141 MEQ/L | TOTAL BILIRUBIN [6]: 0.1 mg/dL | TOTAL PROTEIN [6]: 6.23 G/DL | URIC ACID [6]: 0.9 mg/dL

Reference: ChEMBL document CHEMBL3885881, “DrugMatrix”
